Test results from patent US8895547B2, “Substituted phenyl-oxathiazine derivatives, method for producing them, drugs containing said compounds and the use thereof” (Sanofi, priority 2011, dated 2014).

Target: T1, human 11β-HSD1 (Homo sapiens, UniProt P28845)
T1 construct: host or cells: microsome fraction
Assay: Enzymatic 11beta-HSD1 test (SPA-based detection)
Assay type: biochemical
Conditions: human 11β-HSD1 microsome fraction, [1,2-3H]-cortisone, NADPH, 37° C. 1 hour
Outline: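 Human 11β-HSD1 microsomes (0.2 µg protein) converted [1,2-3H]-cortisone ([…]) for 1 h at 37 °C. The reaction buffer was HEPES/KCl/NaCl/MgCl2 with 0.25 mM NADPH, with compounds added in DMSO. The reaction was stopped with SPA beads, anti-cortisol monoclonal antibody and 0.01 mM SSR110887; after 1 h at room temperature, [3H]-cortisol was scintillation-counted.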

T1 sequence (P28845 whole entry): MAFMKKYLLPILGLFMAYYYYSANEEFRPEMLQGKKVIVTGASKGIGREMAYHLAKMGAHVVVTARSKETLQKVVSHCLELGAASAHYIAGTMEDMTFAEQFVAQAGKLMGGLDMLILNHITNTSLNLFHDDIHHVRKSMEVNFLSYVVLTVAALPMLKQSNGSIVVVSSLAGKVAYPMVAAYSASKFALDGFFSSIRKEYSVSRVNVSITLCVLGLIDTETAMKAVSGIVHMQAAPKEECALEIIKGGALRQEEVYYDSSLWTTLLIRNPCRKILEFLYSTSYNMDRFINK

| Compound | IC50 [µM] |
| --- | --- |
| C[C@H](NC1=NS(=O)(=O)C(c2ccc(C3CCN(CCO)CC3)cc2)C(C)(C)O1)c1ccccc1F (stereo partly drawn) [Example 160, 2-[4-(4-{2-[(S)-1-(2-fluorophenyl)-ethylamino]-6,6-dimethyl-4,4-dioxo-5,6-dihydro-4H-4lambda6-[1,4,3]oxathiazin-5-yl}-phenyl)-piperidin-1-yl]-ethanol] | 0.064 |
| C[C@H](NC1=NS(=O)(=O)C(c2ccc(C3CCN(C)CC3)cc2)C(C)(C)O1)c1ccccc1F (stereo partly drawn) [Example 159, {6,6-Dimethyl-5-[4-(1-methyl-piperidin-4-yl)-phenyl]-4,4-dioxo-5,6-dihydro-4H-4lambda6-[1,4,3]oxathiazin-2-yl}-[(S)-1-(2-fluorophenyl)-ethyl]-amine] | 0.108 |
| COc1cccc(-c2ccc(C3C(C)(C)OC(N[C@@H](CCO)c4ccccc4F)=NS3(=O)=O)cc2)c1 (stereo partly drawn) [Example 86] | 0.01 |
| C[C@H](NC1=NS(=O)(=O)C(c2ccc(-c3ccccc3CN(C)C)cc2)C(C)(C)O1)c1ccccc1F (stereo partly drawn) [Example 173, [5-(2′-Dimethylaminomethyl-biphenyl-4-yl)-6,6-dimethyl-4,4-dioxo-5,6-dihydro-4H-4lambda6-[1,4,3]oxathiazin-2-yl]-[(S)-1-(2-fluorophenyl)-ethyl]-amin] | 0.137 |
| CC1(C)OC(N[C@@H](CCO)c2ccccc2F)=NS(=O)(=O)C1c1ccc(-c2ccc(C(N)=O)cc2)cc1 (stereo partly drawn) [Example 120, 4′-{2-[(S)-1-(2-fluorophenyl)-3-hydroxy-propylamino]-6,6-dimethyl-4,4-dioxo-5,6-dihydro-4H-4lambda6-[1,4,3]oxathiazin-5-yl}-biphenyl-4-carboxylic acid amide] | 0.006 |
| CC1(C)OC(N[C@@H](CCO)c2ccccc2F)=NS(=O)(=O)C1c1ccc(NC2CCN(C3CC3)CC2)cc1 (stereo partly drawn) [Example 142, (S)-3-{5-[4-(1-Cyclopropyl-piperidin-4-ylamino)-phenyl]-6,6-dimethyl-4,4-dioxo-5,6-dihydro-4H-4lambda6-[1,4,3]oxathiazin-2-ylamino}-3-(2-fluoro-phenyl)-propan-1-ol] | 0.064 |
| CC1(C)OC(N[C@@H](CCO)c2ccccc2F)=NS(=O)(=O)C1c1ccc(CCCN2CCOCC2)cc1 (stereo partly drawn) [Example 110] | 0.027 |
| CC1(C)OC(N[C@@H](CCO)c2ccccc2F)=NS(=O)(=O)[C@H]1c1ccc(-c2ccc(C(N)=O)cc2)cc1 [Example 146, 4′-{(S)-2-[(S)-1-(2-fluorophenyl)-3-hydroxy-propylamino]-6,6-dimethyl-4,4-dioxo-5,6-dihydro-4H-4lambda6-[1,4,3]oxathiazin-5-yl}-biphenyl-4-carboxamide] | 0.008 |
| C[C@H](NC1=NS(=O)(=O)C(C)(c2ccccc2)C(C)(C)O1)c1ccccc1F (stereo partly drawn) [Compound 43, [(S)-1-(2-Fluorophenyl)ethyl]-(5,6,6-trimethyl-4,4-dioxo-5-phenyl-5,6-dihydro-4H-4lambda6-[1,4,3]oxathiazin-2-yl)amine] | 0.007 |
| CC1(C)OC(N[C@@H](CCO)c2ccccc2)=NS(=O)(=O)C1c1ccccc1 (stereo partly drawn) [Example 2, (S)-3-(6,6-Dimethyl-4,4-dioxo-5-phenyl-5,6-dihydro-4H-4lambda6-[1,4,3]oxathiazin-2-ylamino)-3-phenyl-propan-1-ol] | 0.017 |
| O=S1(=O)N=C(N[C@@H](CCO)c2ccccc2F)OC2(CCCC2)C1c1ccc(-c2ccccc2)cc1 (stereo partly drawn) [Example 78, (S)-3-(10-Biphenyl-4-yl-9,9-dioxo-6-oxa-9lambda6-thia-8-aza-spiro[4.5]dec-7-en-7-ylamino)-3-(2-fluorophenyl)-propan-1-ol] | 0.035 |
| CC1(C)OC(N[C@@H](CCO)c2cc(Cl)ccc2F)=NS(=O)(=O)C1c1ccc(-c2ccccc2)cc1 (stereo partly drawn) [Example 99, (S)-3-(5-Biphenyl-4-yl-6,6-dimethyl-4,4-dioxo-5,6-dihydro-4H-4lambda6-[1,4,3]oxathiazin-2-ylamino)-3-(5-chloro-2-fluorophenyl)-propan-1-ol] | 0.025 |
| C[C@H](NC1=NS(=O)(=O)[C@H](c2ccc(-c3ccnc(C#N)c3)cc2)C(C)(C)O1)c1ccccc1F [Example 187, 4-(4-{(R)-2-[(S)-1-(2-fluorophenyl)-ethylamino]-6,6-dimethyl-4,4-dioxo-5,6-dihydro-4H-4lambda6-[1,4,3]oxathiazin-5-yl}-phenyl)-pyridine-2-carbonitrile] | 0.005 |
| C[C@H](NC1=NS(=O)(=O)C(c2ccc(C3CCNCC3)cc2)C(C)(C)O1)c1ccccc1F (stereo partly drawn) [Example 158, [6,6-Dimethyl-4,4-dioxo-5-(4-piperidin-4-yl-phenyl)-5,6-dihydro-4H-4lambda6-[1,4,3]oxathiazin-2-yl]-[(S)-1-(2-fluorophenyl)-ethyl]-amin] | 0.038 |
| CC1(C)OC(N[C@@H](CCO)c2ccccc2F)=NS(=O)(=O)C1c1ccc(-c2ccccc2)cc1 (single isomer, unassigned) [Example 70] | 0.019 |
| COc1ccccc1-c1ccc(C2C(C)(C)OC(N[C@@H](CCO)c3ccccc3F)=NS2(=O)=O)cc1 (stereo partly drawn) [Example 94, (S)-3-(2-Fluorophenyl)-3-[5-(2′-methoxy-biphenyl-4-yl)-6,6-dimethyl-4,4-dioxo-5,6-dihydro-4H-4lambda6-[1,4,3]oxathiazin-2-ylamino]-propan-1-ol] | 0.014 |
| CC1(C)OC(N[C@@H](CCO)c2ccccc2F)=NS(=O)(=O)C1(C)c1cccc(-c2ccc(F)cc2)c1 (stereo partly drawn) [Example 71, (S)-3-[5-(4′-Fluorobiphenyl-3-yl)-5,6,6-trimethyl-4,4-dioxo-5,6-dihydro-4H-4lambda6-[1,4,3]oxathiazin-2-ylamino]-3-(2-fluorophenyl)-propan-1-ol] | 0.022 |
| Cc1ccc(F)cc1[C@H](CCO)NC1=NS(=O)(=O)C(c2ccc(-c3ccccc3)cc2)C(C)(C)O1 (stereo partly drawn) [Example 100, (S)-3-(5-Biphenyl-4-yl-6,6-dimethyl-4,4-dioxo-5,6-dihydro-4H-4lambda6-[1,4,3]oxathiazin-2-ylamino)-3-(5-fluoro-2-methyl-phenyl)-propan-1-ol] | 0.019 |
| CC1(C)OC(N[C@@H](CCO)c2ccccc2F)=NS(=O)(=O)C1c1ccc(-c2ccccc2)cc1 (single isomer, unassigned) [Example 69] | 0.013 |
| CC1(C)OC(N[C@@H](CCO)c2ccccc2F)=NS(=O)(=O)C1c1ccc(Nc2ncccn2)cc1 (stereo partly drawn) [Example 130, (S)-3-{6,6-Dimethyl-4,4-dioxo-5-[4-(pyrimidin-2-ylamino)-phenyl]-5,6-dihydro-4H-4lambda6-[1,4,3]oxathiazin-2-ylamino}-3-(2-fluorophenyl)-propan-1-ol] | 0.02 |
| CC1(C)OC(N[C@@H](CCO)c2ccccc2F)=NS(=O)(=O)[C@H]1c1ccc(-c2ccnc(C#N)c2)cc1 [Example 184, 4-(4-{(S)-2-[(S)-1-(2-fluorophenyl)-3-hydroxy-propylamino]-6,6-dimethyl-4,4-dioxo-5,6-dihydro-4H-4lambda6-[1,4,3]oxathiazin-5-yl}-phenyl)-pyridine-2-carbonitrile] | 0.003 |
| C[C@H](NC1=NS(=O)(=O)C(c2ccc(-c3ccnc(C#N)c3)nc2)C(C)(C)O1)c1ccccc1F (stereo partly drawn) [Example 190, 5-{2-[(S)-1-(2-fluorophenyl)-ethylamino]-6,6-dimethyl-4,4-dioxo-5,6-dihydro-4H-4lambda6-[1,4,3]oxathiazin-5-yl}-[2,4′]bipyridinyl-2′-carbonitril] | 0.331 |
| CN(C)Cc1ccc(-c2ccc(C3C(C)(C)OC(N[C@@H](CCO)c4ccccc4F)=NS3(=O)=O)cc2)cc1 (stereo partly drawn) [Example 123, (S)-3-[5-(4′-Dimethylaminomethyl-biphenyl-4-yl)-6,6-dimethyl-4,4-dioxo-5,6-dihydro-4H-4lambda6-[1,4,3]oxathiazin-2-ylamino]-3-(2-fluorophenyl)-propan-1-ol] | 0.013 |
| C[C@H](NC1=NS(=O)(=O)C(c2ccc(-c3cnc(N4CCNCC4)nc3)cc2)C(C)(C)O1)c1ccccc1F (stereo partly drawn) [Example 166, {6,6-Dimethyl-4,4-dioxo-5-[4-(2-piperazin-1-yl-pyrimidin-5-yl)-phenyl]-5,6-dihydro-4H-4lambda6-[1,4,3]oxathiazin-2-yl}-[(S)-1-(2-fluorophenyl)-ethyl]-amine] | 0.004 |
| CC1(C)OC(NC2CCCCC2)=NS(=O)(=O)C1c1cccc(O)c1 (stereo not drawn) [Example 22, 3-(2-Cyclohexylamino-6,6-dimethyl-4,4-dioxo-5,6-dihydro-4H-4lambda6-[1,4,3]oxathiazin-5-yl)-phenol] | 0.163 |
| CC1(C)OC(N[C@@H](CCO)c2ccccc2F)=NS(=O)(=O)C1c1ccc(C2CCN(CC(F)F)CC2)cc1 (stereo partly drawn) [Example 105] | 0.008 |
| CC1(C)OC(N[C@@H](CCO)c2ccccc2)=NS(=O)(=O)C1c1cccc(O)c1 (stereo partly drawn) [Example 32, 3-[2-((S)-3-Hydroxy-1-phenyl-propylamino)-6,6-dimethyl-4,4-dioxo-5,6-dihydro-4H-4lambda6-[1,4,3]oxathiazin-5-yl]-phenol] | 0.024 |
| CC1(C)OC(N[C@@H](CCO)c2ccccc2F)=NS(=O)(=O)C1c1cccc(-c2ccccc2)c1 (stereo partly drawn) [Example 67, (S)-3-(5-Biphenyl-3-yl-6,6-dimethyl-4,4-dioxo-5,6-dihydro-4H-4lambda6-[1,4,3]oxathiazin-2-ylamino)-3-(2-fluorophenyl)-propan-1-ol] | 0.015 |
| CC1(C)OC(NC2CCCCC2)=NS(=O)(=O)C1c1ccc(-c2ccccc2)cc1 (stereo not drawn) [Example 3, (5-Biphenyl-4-yl-6,6-dimethyl-4,4-dioxo-5,6-dihydro-4H-4lambda6-[1,4,3]oxathiazin-2-yl)-cyclohexyl-amine] | 1.27 |
| CC1(C)OC(N[C@@H](CCO)c2ccccc2F)=NS(=O)(=O)C1(C)c1cccc(N2CCN(S(C)(=O)=O)CC2)c1 (stereo partly drawn) [Example 44, (S)-3-(2-Fluorophenyl)-3-{5-[3-(4-methanesulfonyl-piperazin-1-yl)-phenyl]-5,6,6-trimethyl-4,4-dioxo-5,6-dihydro-4H-4lambda6-[1,4,3]oxathiazin-2-ylamino}-propan-1-ol] | 0.013 |
